In patent publication US20220009920A1 (GB005, Inc., priority 2020, published 2022) one finds inhibition data, which are given here for three compounds.

One may read the inhibition as the relative decrease from the control value, in per cent.

What all share (assay): Large panel kinase profiling
Assay type in all cases: biochemical
Settings in all cases: 1 μM test article, 1 mM ATP

One test deals with T1, NUAK1 (Homo sapiens, UniProt O60285).
T1 sequence (O60285 1-661): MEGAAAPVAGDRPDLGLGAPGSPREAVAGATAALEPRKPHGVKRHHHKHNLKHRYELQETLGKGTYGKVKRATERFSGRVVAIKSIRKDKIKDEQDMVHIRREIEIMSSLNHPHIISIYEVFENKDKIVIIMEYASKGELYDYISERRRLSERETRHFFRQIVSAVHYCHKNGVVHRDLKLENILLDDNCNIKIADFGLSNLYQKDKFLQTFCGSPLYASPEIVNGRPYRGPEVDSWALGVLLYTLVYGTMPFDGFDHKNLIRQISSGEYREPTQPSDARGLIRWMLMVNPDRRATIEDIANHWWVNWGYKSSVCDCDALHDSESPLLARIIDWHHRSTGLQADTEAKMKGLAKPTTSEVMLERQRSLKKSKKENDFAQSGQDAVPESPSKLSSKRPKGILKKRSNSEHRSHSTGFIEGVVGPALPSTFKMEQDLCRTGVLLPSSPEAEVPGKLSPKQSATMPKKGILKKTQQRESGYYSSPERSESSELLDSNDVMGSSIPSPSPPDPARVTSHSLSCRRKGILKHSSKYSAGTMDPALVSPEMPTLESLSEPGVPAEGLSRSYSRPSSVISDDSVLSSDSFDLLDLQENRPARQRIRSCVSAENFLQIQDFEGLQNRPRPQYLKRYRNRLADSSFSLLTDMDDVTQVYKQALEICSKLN
The procedure: (§1) Large panel kinase profiling was performed at AssayQuant Technologies, Inc. 260 Cedar Hill Street, Marlborough, Mass. 01752 using the PhosphoSens® CSox-Sensor platform using 1 μM test article concentration and 1 mM ATP concentration (www.assayquant.com). Reactions were run in Corning, half-area 96-well, white flat round bottom polystyrene NBS microplates (Cat. #3642) after sealing using optically-clear adhesive film (TopSealA-Plus plate seal, PerkinElmer), applied with either a roller or a paddle to eliminate evaporation and resulting drift. The standard total reaction volume was 50 μL. All experiments were ran at 30° C. to control for fluctuations in ambient temperature. Plates were read from the top in kinetic mode (readings taken every 1 min), monitoring fluorescence intensity with filters using Ex 360 nm and Em 485 nm and a band width of 40 and 20 nm, respectively, and a gain of 80. Data analysis was performed using either Graphpad Prism or Gene Data Screener software.

Another test has as its target CAMK1A (Homo sapiens, UniProt Q14012). The method, then: as §1
Another test has as its target LTK (Homo sapiens, UniProt P29376). The method, then: as §1
For the next test, the target named is T2, CDK6/D3 (Homo sapiens, UniProt Q00534).
T2 construct: AssayQuant Technologies, Inc. (ran the panel)
The method, then:
as §1

The next test addresses T3, ULK1 (Homo sapiens, UniProt O75385).
T3 construct: AssayQuant Technologies, Inc. (contract laboratory that ran the panel)
T3 sequence (O75385 1-1050): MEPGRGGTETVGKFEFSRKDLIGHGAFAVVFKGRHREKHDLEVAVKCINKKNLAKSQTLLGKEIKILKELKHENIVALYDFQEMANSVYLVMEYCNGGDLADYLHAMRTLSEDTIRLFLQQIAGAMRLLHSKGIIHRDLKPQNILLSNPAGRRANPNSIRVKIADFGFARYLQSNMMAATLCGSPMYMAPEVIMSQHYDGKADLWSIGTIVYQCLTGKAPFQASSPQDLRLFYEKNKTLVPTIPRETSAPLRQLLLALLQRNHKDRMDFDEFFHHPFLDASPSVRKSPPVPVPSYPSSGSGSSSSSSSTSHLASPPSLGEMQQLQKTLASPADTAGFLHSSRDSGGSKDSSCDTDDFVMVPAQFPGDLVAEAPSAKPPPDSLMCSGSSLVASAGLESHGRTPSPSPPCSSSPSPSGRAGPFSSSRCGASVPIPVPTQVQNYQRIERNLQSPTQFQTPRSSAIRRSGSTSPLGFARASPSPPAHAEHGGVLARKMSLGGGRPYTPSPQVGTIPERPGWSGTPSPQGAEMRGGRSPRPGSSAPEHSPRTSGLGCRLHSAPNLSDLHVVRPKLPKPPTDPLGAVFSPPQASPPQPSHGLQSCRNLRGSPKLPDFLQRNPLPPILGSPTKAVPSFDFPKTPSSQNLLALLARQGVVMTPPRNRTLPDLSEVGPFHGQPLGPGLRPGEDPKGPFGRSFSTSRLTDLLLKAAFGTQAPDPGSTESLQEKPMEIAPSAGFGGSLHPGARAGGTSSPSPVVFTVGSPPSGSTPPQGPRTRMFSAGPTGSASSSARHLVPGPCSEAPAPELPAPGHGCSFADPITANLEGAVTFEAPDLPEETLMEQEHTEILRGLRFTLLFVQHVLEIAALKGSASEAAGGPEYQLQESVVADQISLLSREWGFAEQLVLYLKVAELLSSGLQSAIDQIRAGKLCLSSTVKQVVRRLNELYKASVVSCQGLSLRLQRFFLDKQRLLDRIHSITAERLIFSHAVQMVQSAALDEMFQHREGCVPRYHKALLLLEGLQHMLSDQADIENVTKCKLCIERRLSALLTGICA
The procedure: as §1

The target in a further test is ROCK1 (Homo sapiens, UniProt Q13464). The method, then:
as §1

Chain of ROCK1 (Q13464 whole entry, species assumed): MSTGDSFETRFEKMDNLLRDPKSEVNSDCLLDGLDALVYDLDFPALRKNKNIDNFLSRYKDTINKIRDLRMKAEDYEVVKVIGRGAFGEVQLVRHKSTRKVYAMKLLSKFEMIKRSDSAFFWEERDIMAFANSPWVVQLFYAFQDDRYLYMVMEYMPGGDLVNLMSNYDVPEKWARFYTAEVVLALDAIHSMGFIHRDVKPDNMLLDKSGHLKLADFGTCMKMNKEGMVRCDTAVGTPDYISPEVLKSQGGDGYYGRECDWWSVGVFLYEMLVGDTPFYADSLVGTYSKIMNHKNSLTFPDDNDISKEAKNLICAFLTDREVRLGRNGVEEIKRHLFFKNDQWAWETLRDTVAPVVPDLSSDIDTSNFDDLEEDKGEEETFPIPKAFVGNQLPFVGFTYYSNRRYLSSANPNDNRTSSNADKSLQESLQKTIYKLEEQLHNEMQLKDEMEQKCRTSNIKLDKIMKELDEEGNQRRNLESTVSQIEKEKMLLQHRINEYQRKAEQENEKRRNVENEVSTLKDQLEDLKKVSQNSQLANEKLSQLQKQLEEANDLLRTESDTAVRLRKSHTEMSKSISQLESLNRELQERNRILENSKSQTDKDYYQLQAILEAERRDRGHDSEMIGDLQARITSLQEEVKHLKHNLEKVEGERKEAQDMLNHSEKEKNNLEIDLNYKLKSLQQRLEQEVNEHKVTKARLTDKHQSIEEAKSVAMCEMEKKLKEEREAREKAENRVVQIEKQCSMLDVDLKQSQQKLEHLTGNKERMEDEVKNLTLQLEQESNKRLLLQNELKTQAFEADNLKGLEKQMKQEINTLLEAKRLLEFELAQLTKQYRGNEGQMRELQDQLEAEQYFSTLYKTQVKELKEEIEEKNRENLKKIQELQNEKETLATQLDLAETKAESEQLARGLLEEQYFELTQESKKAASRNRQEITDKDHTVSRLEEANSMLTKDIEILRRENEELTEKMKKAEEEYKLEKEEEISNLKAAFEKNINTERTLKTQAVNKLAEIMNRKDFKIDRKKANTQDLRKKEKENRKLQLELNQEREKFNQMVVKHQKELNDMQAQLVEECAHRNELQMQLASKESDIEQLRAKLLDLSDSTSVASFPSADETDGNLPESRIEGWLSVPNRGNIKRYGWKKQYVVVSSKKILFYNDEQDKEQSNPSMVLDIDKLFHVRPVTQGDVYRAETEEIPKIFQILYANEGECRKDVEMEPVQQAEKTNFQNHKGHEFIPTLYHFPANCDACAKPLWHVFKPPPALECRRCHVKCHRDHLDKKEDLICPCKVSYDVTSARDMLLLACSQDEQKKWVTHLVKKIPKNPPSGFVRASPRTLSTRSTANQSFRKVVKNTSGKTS
Chain of LTK (P29376 17-864, species assumed): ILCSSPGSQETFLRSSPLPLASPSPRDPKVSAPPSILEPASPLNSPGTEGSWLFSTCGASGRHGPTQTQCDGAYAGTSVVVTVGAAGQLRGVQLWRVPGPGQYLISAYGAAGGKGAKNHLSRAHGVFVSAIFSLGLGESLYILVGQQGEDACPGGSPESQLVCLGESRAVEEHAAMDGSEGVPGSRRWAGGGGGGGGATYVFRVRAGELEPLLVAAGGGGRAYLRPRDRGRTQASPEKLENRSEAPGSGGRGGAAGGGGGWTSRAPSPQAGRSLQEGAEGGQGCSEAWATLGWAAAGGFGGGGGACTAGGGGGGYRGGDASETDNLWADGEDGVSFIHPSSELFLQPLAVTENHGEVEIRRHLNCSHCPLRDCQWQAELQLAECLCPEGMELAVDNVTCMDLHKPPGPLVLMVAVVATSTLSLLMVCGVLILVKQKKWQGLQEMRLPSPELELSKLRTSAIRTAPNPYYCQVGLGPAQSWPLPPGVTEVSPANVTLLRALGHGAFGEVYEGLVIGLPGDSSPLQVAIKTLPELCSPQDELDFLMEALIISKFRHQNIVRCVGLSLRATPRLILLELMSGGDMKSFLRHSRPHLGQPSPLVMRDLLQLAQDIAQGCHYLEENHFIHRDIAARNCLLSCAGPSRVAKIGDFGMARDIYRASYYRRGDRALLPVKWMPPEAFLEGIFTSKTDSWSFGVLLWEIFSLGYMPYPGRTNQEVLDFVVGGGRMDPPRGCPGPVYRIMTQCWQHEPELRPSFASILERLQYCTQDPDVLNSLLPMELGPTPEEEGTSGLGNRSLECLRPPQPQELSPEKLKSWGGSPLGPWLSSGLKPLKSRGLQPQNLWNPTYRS
T2 sequence (Q00534 whole entry, species assumed): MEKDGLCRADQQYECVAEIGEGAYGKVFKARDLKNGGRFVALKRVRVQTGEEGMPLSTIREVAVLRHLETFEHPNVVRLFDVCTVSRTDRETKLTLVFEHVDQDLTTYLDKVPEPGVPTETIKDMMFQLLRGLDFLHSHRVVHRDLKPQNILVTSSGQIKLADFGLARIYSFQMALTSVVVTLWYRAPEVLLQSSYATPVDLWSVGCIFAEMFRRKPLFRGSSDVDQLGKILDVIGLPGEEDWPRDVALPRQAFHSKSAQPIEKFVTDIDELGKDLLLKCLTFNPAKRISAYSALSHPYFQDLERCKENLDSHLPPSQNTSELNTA
T2 sequence (P30281 whole entry partner, species assumed): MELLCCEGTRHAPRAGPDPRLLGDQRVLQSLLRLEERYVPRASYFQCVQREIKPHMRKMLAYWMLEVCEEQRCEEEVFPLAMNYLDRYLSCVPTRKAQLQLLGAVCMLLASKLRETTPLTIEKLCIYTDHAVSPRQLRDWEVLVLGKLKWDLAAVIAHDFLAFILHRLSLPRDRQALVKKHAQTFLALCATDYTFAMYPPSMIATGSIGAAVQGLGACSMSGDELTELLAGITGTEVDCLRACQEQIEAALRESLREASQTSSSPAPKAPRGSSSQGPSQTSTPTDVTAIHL
Chain of CAMK1A (Q14012 whole entry): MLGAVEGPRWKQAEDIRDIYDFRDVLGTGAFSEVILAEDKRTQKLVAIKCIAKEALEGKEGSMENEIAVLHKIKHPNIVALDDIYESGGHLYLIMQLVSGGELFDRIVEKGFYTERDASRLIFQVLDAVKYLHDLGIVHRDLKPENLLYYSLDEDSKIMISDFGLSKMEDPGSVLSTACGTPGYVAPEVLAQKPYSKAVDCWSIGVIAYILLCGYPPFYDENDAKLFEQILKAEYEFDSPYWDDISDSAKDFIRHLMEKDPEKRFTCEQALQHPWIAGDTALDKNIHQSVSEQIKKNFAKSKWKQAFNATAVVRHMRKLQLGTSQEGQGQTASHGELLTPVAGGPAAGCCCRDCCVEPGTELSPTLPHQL

With `C=CC(=O)N1CCC[C@@H](c2c(F)cc(C(N)=O)c3[nH]c4c(c23)CCC4)C1` [Compound 10-2, (S)-8-(1-acryloylpiperidin-3-yl)-7-fluoro-1,2,3,4-tetrahydrocyclo-penta[b]indole-5-carboxamide], the inhibition at 1 µM against NUAK1 is -9.3%; against CAMK1A it was 7.9%; on LTK, 24.4%; at CDK6/D3, -18.4%; against ULK1, -6.1%; against ROCK1 it was 13.7%.

For the compound `C=CC(=O)N1CCCC(c2c(F)cc(C(N)=O)c3[nH]c4c(c23)CCCCC4)C1` (single isomer, unassigned) [Compound 5-6], the inhibition at 1 µM against NUAK1 was 3.8%; against CAMK1A it was 24.4%; against LTK, 0.6%; against CDK6/D3, -8%; at ULK1 it was -3.1%; against ROCK1, 3.5%.

Consider `C=CC(=O)N1CCC[C@@H](c2c(F)cc(C(N)=O)c3[nH]c4c(c23)CC2(CC4)CC2)C1` [Compound 6-2, (S)-5-(1-acryloylpiperidin-3-yl)-6-fluoro-1,2,4,9-tetrahydrospiro[carbazole-3,1′-cyclopropane]-8-carboxamide], for which the inhibition at 1 µM is 13.2% against NUAK1; 34.5% against CAMK1A; 18.3% against LTK; -6.1% against CDK6/D3; -23.6% at ULK1; 2.5% against ROCK1.
